Measurements published in patent US4495196A, “Antiinflammatory 4,5-diaryl-α-polyfluoroalkyl-1H-pyrrole-2-methanols and method for use thereof” (E. I. Du Pont de Nemours and Company, priority 1981, dated 1985).
Like-named read-outs stand apart in the source and are kept apart here.

Assays:
[1] = tested on: adjuvant-induced arthritis in rats; assay: Established Adjuvant-Induced Arthritis in Rats; format: in vivo, Lewis (Wistar) male rats; conditions: for ED50: 504 h, read-out: Adjuvant Arthritis ED50
[2] = tested on: phenylquinone-induced writhing in mice; assay: Phenylquinone Writhing Test; format: in vivo, female white mice; conditions: mouse; oral; effective analgesic dose for 50% of the mice; observed 10 minutes from 30 minutes after dosing
Method: Phenylquinone Writhing Test
The phenylquinone writhing test, modified from Siegmund, et al., Proc. Soc. […] A test compound suspended in 1% methylcellulose was given orally to fasted (17-21 hours) female white mice, 5-20 animals per double blind test. Aqueous (0.01% phenyl-p-benzoquinone) phenylquinone was injected intraperitoneally at 24 minutes later using 0.20 ml per mouse.

[3] = rat, oral gavage once daily for 7 days (days 14-20), ED50% for decrease from control paw volume, estimated by inspection, day 21
[4] = 168 h, rat, oral once daily for 7 days, read-out: percent reduction in paw volume at the indicated dose

SMILES | ED50 [2] [mg/kg] | ED50 [1, 3] [mg/kg] | other results
OC(c1cc(-c2ccc(Cl)cc2)c(-c2ccc(Cl)cc2)[nH]1)(C(F)(F)F)C(F)(F)F [Example 1, 4,5-Bis(4-chlorophenyl)-α,α-bis(trifluoromethyl)-1H-pyrrole-2-methanol] | > 108 |  | ED50 ([1]; Rattus norvegicus, po): 7 mg/kg
OC(c1cc(-c2ccccc2)c(-c2ccccc2)[nH]1)(C(F)(F)F)C(F)(F)F [Example 2] | 135 |  | inhibition in vivo at 81 mg/kg ([1]; 168 h, rat, oral once daily for 7 days, dose 81 mg/kg, read-out: percent reduction in paw volume at the indicated dose): 42%
OC(c1cc(-c2ccc(F)cc2)c(-c2ccc(F)cc2)[nH]1)(C(F)(F)F)C(F)(F)F [Example 3, 4,5-bis(4-fluorophenyl)-α,α-bis(trifluoromethyl)-1H-pyrrole-2-methanol] | > 108 | 3.5 | 
OC(c1cc(-c2ccccc2)c(-c2ccc(Cl)c(Cl)c2)[nH]1)(C(F)(F)F)C(F)(F)F [Example 4] | > 108 | 70 | 
OC(c1cc(-c2ccc(F)cc2)c(-c2ccc(Br)cc2)[nH]1)(C(F)(F)F)C(F)(F)F [Example 5] | > 135 | 6 | 
Cc1c(C(O)(C(F)(F)F)C(F)(F)F)[nH]c(-c2ccc(F)cc2)c1-c1ccc(F)cc1 [Example 6] | > 135 | 2.8 | 
OC(c1cc(-c2ccccc2)c(-c2cccnc2)[nH]1)(C(F)(F)F)C(F)(F)F [Example 7] | 78 |  | inhibition in vivo at 18 mg/kg ([1]; 168 h, rat, oral once daily for 7 days, dose 18 mg/kg, read-out: percent reduction in paw volume at the indicated dose): 31%
COc1ccc(-c2cc(C(O)(C(F)(F)F)C(F)(F)F)[nH]c2-c2ccc(OC)cc2)cc1 [Example 8] | 5.2 | 4 | 
Cc1ccc(-c2cc(C(O)(C(F)(F)F)C(F)(F)F)[nH]c2-c2ccc(C)cc2)cc1 [Example 9] | > 108 | 8 | 
CN(C)c1ccc(-c2[nH]c(C(O)(C(F)(F)F)C(F)(F)F)cc2-c2ccc(F)cc2)cc1 [Example 10, 4-(4-fluorophenyl)-5-(4-dimethylaminophenyl)-α,α-bis(trifluoromethyl)-1H-pyrrole-2-methanol] | > 108 | 2.2 | 
OC(c1cc(-c2ccc(F)cc2)c(-c2cccnc2)[nH]1)(C(F)(F)F)C(F)(F)F [Example 11] | > 108 |  | inhibition in vivo at 15 mg/kg ([1]; 168 h, rat, oral once daily for 7 days, dose 15 mg/kg, read-out: percent reduction in paw volume at the indicated dose): 47%
CSc1ccc(-c2[nH]c(C(O)(C(F)(F)F)C(F)(F)F)cc2-c2ccc(F)cc2)cc1 [Example 12] | > 108 | 9 | 
CS(=O)(=O)c1ccc(-c2[nH]c(C(O)(C(F)(F)F)C(F)(F)F)cc2-c2ccc(F)cc2)cc1 [Example 13] | > 108 |  | inhibition in vivo at 27 mg/kg [1, 4]: 22%
OC1(c2cc(-c3ccc(F)cc3)c(-c3ccc(F)cc3)[nH]2)C(F)(F)C(F)(F)C1(F)F [Example 16] | > 108 |  | ED50 ([1]; Rattus norvegicus, po): 1.3 mg/kg
OC(c1cc(-c2ccc(F)cc2)c(-c2ccc(F)cc2)[nH]1)(C(F)(F)Cl)C(F)(F)Cl [Example 17] | > 108 | 6.5 | 
OC(c1cc(-c2ccc(F)cc2)c(-c2ccc(F)cc2)[nH]1)(C(F)F)C(F)(F)F (centres unmarked) [Example 18] | > 108 | 4 | 
OC(c1cc(-c2ccc(F)cc2)c(-c2ccc(F)cc2)[nH]1)(C(F)(F)F)C(F)(F)Cl (centres unmarked) [Example 19] | > 108 | 2 | 

SMILES | ED50 [2] [mg/kg] | ED50 [1, 3] [mg/kg] | other results
OC1(c2cc(-c3ccc(F)cc3)c(-c3ccc(F)cc3)[nH]2)C(F)(F)C(F)(F)C1(F)Cl (centres unmarked) [Example 20] | > 108 | 4.5 | 
OC1(c2cc(-c3ccc(F)cc3)c(-c3ccc(F)cc3)[nH]2)C(F)(F)C(F)(F)C1(F)Br (centres unmarked) [Example 21] | > 108 | 20 | 
OC(c1cc(-c2ccc(F)cc2)c(-c2ccc(F)cc2)[nH]1)(C(F)(F)Cl)C(F)(Cl)Cl (centres unmarked) [Example 22] | > 108 |  | ED50 ([1]; Rattus norvegicus, po): 7 mg/kg
Cn1c(C(O)(C(F)(F)F)C(F)(F)F)cc(-c2ccc(F)cc2)c1-c1ccc(F)cc1 [Example 28, 4,5-Bis(4-fluorophenyl)-1-methyl-α,α-bis(trifluoromethyl)-1H-pyrrole-2-methanol] | 45 | 0.66 | 
OC(c1cc(-c2ccc(F)cc2)c(-c2ccc(F)cc2)[nH]1)C(F)(F)F (stereo not drawn) [Example 29, 4,5-Bis(4-fluorophenyl)-α-(trifluoromethyl)-1H-pyrrole-2-methanol] | > 108 | 11 | 
COc1ccc(-c2cc(C(O)C(F)(F)F)[nH]c2-c2ccc(OC)cc2)cc1 (stereo not drawn) [Example 30, 4,5-Bis(4-methoxyphenyl)-α-(trifluoromethyl)-1H-pyrrole-2-methanol] | 13.4 | 5.5 | 
COc1ccc(-c2cc(C(C)(O)C(F)(F)F)[nH]c2-c2ccc(OC)cc2)cc1 (stereo not drawn) [Example 31, 4,5-Bis(4-methoxyphenyl)-α-methyl-α-(trifluoromethyl)-1H-pyrrole-2-methanol] | 23 | 1.25 | 
COC(c1cc(-c2ccc(F)cc2)c(-c2ccc(F)cc2)n1C)(C(F)(F)F)C(F)(F)F [Example 32, 2,3-Bis(4-fluorophenyl)-1-methyl-5-[2,2,2-trifluoro-1-methoxy-1-(trifluoromethyl)ethyl]-1H-pyrrole] | > 108 | 5.5 | 
Fc1ccc(-c2cc(C(OCc3ccccc3)(C(F)(F)F)C(F)(F)F)[nH]c2-c2ccc(F)cc2)cc1 [Example 33, 2,3-Bis(4-fluorophenyl)-5-[2,2,2-trifluoro-1-(phenylmethoxy)-1-(trifluoromethyl)ethyl]-1H-pyrrole] |  |  | inhibition in vivo at 25 mg/kg [1, 4]: 35%
CC(=O)OC(c1cc(-c2ccc(F)cc2)c(-c2ccc(F)cc2)n1C)(C(F)(F)F)C(F)(F)F [Example 34, 4,5-Bis(4-fluorophenyl)-1-methyl-α,α-bis(trifluoromethyl)-1H-pyrrole-2-methanol, Acetate] | > 108 | 2.5 | 
Cn1c(C(OC(=O)c2ccccc2)(C(F)(F)F)C(F)(F)F)cc(-c2ccc(F)cc2)c1-c1ccc(F)cc1 [Example 35, 4,5-Bis(4-fluorophenyl)-1-methyl-α,α-bis(trifluoromethyl)-1H-pyrrole-2-methanol, Benzoate] | > 108 |  | inhibition in vivo at 27 mg/kg [1, 4]: 22%
COC(=O)OC(c1cc(-c2ccc(F)cc2)c(-c2ccc(F)cc2)n1C)(C(F)(F)F)C(F)(F)F [Example 36, 4,5-Bis(4-fluorophenyl)-1-methyl-α,α-bis(trifluoromethyl)-1H-pyrrole-2-methanol, Methylcarbonate] | > 108 |  | inhibition in vivo at 25 mg/kg [1, 4]: 46%
OC(c1cc(-c2ccc(F)cc2)c(-c2ccc(F)cc2)[nH]1)C(F)(F)C(F)(F)F (centres unmarked) [Example 37] | 103 | 2.9 | 
CC(O)(c1cc(-c2ccc(F)cc2)c(-c2ccc(F)cc2)[nH]1)C(F)(F)C(F)(F)F (centres unmarked) [Example 38] | > 108 | 3.1 | 
OC(c1cc(-c2ccc(F)cc2)c(-c2ccc(F)cc2)[nH]1)C(F)(F)C(F)(F)C(F)(F)F (centres unmarked) [Example 49] | > 108 |  | ED50 ([1]; Rattus norvegicus, po): 7 mg/kg
CC(O)(c1cc(-c2ccc(F)cc2)c(-c2ccc(F)cc2)[nH]1)C(F)(F)F (centres unmarked) [Example 50] | > 108 |  | inhibition in vivo at 9 mg/kg ([1]; 168 h, rat, oral once daily for 7 days, dose 9 mg/kg, read-out: percent reduction in paw volume at the indicated dose): 47%
